# Laboratory results from patent US8247211B2, “Glycopeptide antibiotics” (American Cyanamid Company, priority 2001, dated 2012).
# Assays:
# [1] = test system: Enterococcus faecalis (GC 6189), vancomycin resistant strain; assay: Acute lethal infection in mice (ED50); format: in vivo; details: female CD-1 mice, intraperitoneal challenge, intravenous dose 30 min. after infection, 7 day survival ratios
# How it was run: (§1)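 Lethal systemic infection model: female CD-1 mice, 20 ± 1-2 g, intraperitoneal challenge. Single intravenous treatment 30 min after infection; 7-day survival, pooled from 3 tests, gives ED50.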
# [2] = test system: Staphylococcus aureus-SMITH (GC 4543); assay: Acute lethal infection in mice (ED50); format: in vivo; details: female CD-1 mice, intraperitoneal challenge, intravenous dose 30 min. after infection, 7 day survival ratios
# How it was run: as §1
# [3] = test system: Enterococcus sp.; assay: In vitro antibacterial evaluation: minimum inhibitory concentration (MIC), broth dilution method; format: cell-based; details: broth dilution, 5×10^5 CFU/mL, 18 hours at 35° C.
# How it was run: (§2)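 An MIC is reported for each organism as the least concentration giving inhibition, using broth dilution over 64-0.06 μg/mL with a 5×10^5 CFU/mL inoculum.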
# [4] = test system: Streptococcus sp.; assay: as above; format: cell-based; details: broth dilution, 5×10^5 CFU/mL, 18 hours at 35° C.
# How it was run: as §2
# [5] = test system: Staphylococcus sp.; assay: as above; format: cell-based; details: for MIC Staphylococcus aureus (ATCC 29213): strain ATCC 29213; for MIC Staphylococcus aureus (GC 1131): strain GC 1131; for MIC Staphylococcus aureus (GC 3051): strain GC 3051; for MIC Staphylococcus aureus (GC 3053): strain GC 3053; for MIC Staphylococcus aureus (GC 4541): strain GC 4541; for MIC Staphylococcus aureus (GC 4542): strain GC 4542; for MIC Staphylococcus aureus-SMITH (GC 4543): strain GC 4543; for MIC Staphylococcus aureus (GC 4544): strain GC 4544; for MIC Staphylococcus aureus (GC 4545): strain GC 4545; for MIC Staphylococcus haemolyticus (GC 4546): strain GC 4546; for MIC Coagulase Negative Staphylococcus (GC 4547): strain GC 4547; for MIC Coagulase Negative Staphylococcus (GC 4548): strain GC 4548; for MIC Coagulase Negative Staphylococcus (GC 4549): strain GC 4549; for MIC Coagulase Negative Staphylococcus (GC 4551): strain GC 4551; for MIC Coagulase Negative Staphylococcus (GC 6257): strain GC 6257
# How it was run: as §2
# [6] = test system: Escherichia coli; assay: as above; format: cell-based; details: 5×10^5 CFU/mL, 18 hours at 35° C.
# How it was run: as §2
# [7] = broth dilution, 18 hours at 35° C.
compound,measurement,setting,value
"Cc1ccc(CC2OCC3OC(OC4C(CO)OC(Oc5ccc(CC6NC(=O)C(C(C)c7ccccc7)NC(=O)CNC(=O)C(CO)NC(=O)C(C(O)C7CNC(=N)N7C7OC(CO)C(O)C(O)C7O)NC(=O)C(C(O)C7CNC(=N)N7)NC6=O)cc5)C(O)C4O)C(O)C(O)C3O2)cc1 (stereo not drawn) [Example 119, Cyclo[glycyl-β-methylphenylalanyl-O-[4-O-[4,6-O-(4-methylphenethylidene)hexopyranosyl]-hexopyranosyl]tyrosyl-3-(2-iminoimidazolidin-4-yl)seryl-3-(3-hexopyranosyl-2-iminoimidazolidin-4-yl)serylseryl]]","median effective dose (ED50), Enterococcus faecalis (GC 6189)",[1],0.41 mg/kg
same,"median effective dose (ED50), Staphylococcus aureus-SMITH (GC 4543)",[2],0.19 mg/kg
same,MIC Enterococccus avium (GC 4558),[3],4 µg/mL
same,MIC Enterococccus faecalis (ATCC 29212),[3],2 µg/mL
same,MIC Enterococccus faecalis (GC 2691),[3],2 µg/mL
same,MIC Enterococccus faecalis (GC 3059),[3],>64 µg/mL
same,MIC Enterococccus faecalis (GC 4552),[3],2 µg/mL
same,MIC Enterococccus faecalis (GC 4553),[3],4 µg/mL
same,MIC Enterococccus faecalis (GC 4554),[3],2 µg/mL
same,MIC Enterococccus faecalis (GC 6189),[3],2 µg/mL
same,MIC Enterococccus faecium (GC 2243),[3],4 µg/mL
same,MIC Enterococccus faecium (GC 4556),[3],2 µg/mL
same,MIC Enterococccus faecium (GC 4557),[3],1 µg/mL
same,MIC Enterococcus faecalis (GC 2242),[3],2 µg/mL
same,MIC Streptococcus agalactiae (GC 4564),[4],<0.5 µg/mL
same,MIC Streptococcus pneumoniae (GC 1894),[4],<0.5 µg/mL
same,MIC Streptococcus pneumoniae (GC 4565),[4],1 µg/mL
same,MIC Streptococcus pneumonine (ATCC 6301),[4],<0.5 µg/mL
same,MIC Streptococcus pyogenes (GC 4563),[4],<0.5 µg/mL
same,MIC Staphylococcus aureus (ATCC 29213),[5],1 µg/mL
same,MIC Staphylococcus aureus (ATCC 29213),[5]; [7],1 µg/mL
same,MIC Staphylococcus aureus (GC 1131),[5],1 µg/mL
same,MIC Staphylococcus aureus (GC 1131),[5]; [7],1 µg/mL
same,MIC Staphylococcus aureus (GC 3051),[5],1 µg/mL
same,MIC Staphylococcus aureus (GC 3051),[5]; [7],1 µg/mL
same,MIC Staphylococcus aureus (GC 3053),[5],2 µg/mL
same,MIC Staphylococcus aureus (GC 3053),[5]; [7],2 µg/mL
same,MIC Staphylococcus aureus (GC 4541),[5],1 µg/mL
same,MIC Staphylococcus aureus (GC 4541),[5]; [7],1 µg/mL
same,MIC Staphylococcus aureus (GC 4542),[5],1 µg/mL
same,MIC Staphylococcus aureus (GC 4542),[5]; [7],1 µg/mL
same,MIC Staphylococcus aureus-SMITH (GC 4543),[5]; 18 hours at 35° C.,1 µg/mL
same,MIC Staphylococcus aureus-SMITH (GC 4543),[5]; [7],1 µg/mL
same,MIC Staphylococcus aureus (GC 4544),[5],1 µg/mL
same,MIC Staphylococcus aureus (GC 4544),[5]; [7],1 µg/mL
same,MIC Staphylococcus aureus (GC 4545),[5],1 µg/mL
same,MIC Staphylococcus aureus (GC 4545),[5]; [7],1 µg/mL
same,MIC Staphylococcus haemolyticus (GC 4546),[5],1 µg/mL
same,MIC Staphylococcus haemolyticus (GC 4546),[5]; [7],1 µg/mL
same,MIC Coagulase Negative Staphylococcus (GC 4547),[5],1 µg/mL
same,MIC Coagulase Negative Staphylococcus (GC 4547),[5]; [7],1 µg/mL
same,MIC Coagulase Negative Staphylococcus (GC 4548),[5],1 µg/mL
same,MIC Coagulase Negative Staphylococcus (GC 4548),[5]; [7],1 µg/mL
same,MIC Coagulase Negative Staphylococcus (GC 4549),[5],1 µg/mL
same,MIC Coagulase Negative Staphylococcus (GC 4549),[5]; [7],1 µg/mL
same,MIC Coagulase Negative Staphylococcus (GC 4551),[5],1 µg/mL
same,MIC Coagulase Negative Staphylococcus (GC 4551),[5]; [7],1 µg/mL
same,MIC Coagulase Negative Staphylococcus (GC 6257),[5],<0.5 µg/mL
same,MIC Coagulase Negative Staphylococcus (GC 6257),[5]; [7],<0.5 µg/mL
same,MIC Escherichia coli (ATCC 25922),[6],32 µg/mL
same,MIC Escherichia coli (GC 4559),[6],32 µg/mL
same,MIC Escherichia coli (GC 4560),[6],1 µg/mL
"CC(c1ccccc1)C1NC(=O)CNC(=O)C(CO)NC(=O)C(C(O)C2CNC(=N)N2C2OC(CO)C(O)C(O)C2O)NC(=O)C(C(O)C2CNC(=N)N2)NC(=O)C(Cc2ccc(OC3OC(CO)C(OC4OC5COC(Cc6ccc(F)cc6)OC5C(O)C4O)C(O)C3O)cc2)NC1=O (stereo not drawn) [Example 121, Cyclo[glycyl-β-methylphenylalanyl-O-[4-O-[4,6-O-(4-fluorophenethylidene)hexopyranosyl]-hexopyranosyl]tyrosyl-3-(2-iminoimidazolidin-4-yl)seryl-3-(3-hexopyranosyl-2-iminoimidazolidin-4-yl)serylseryl]]","median effective dose (ED50), Enterococcus faecalis (GC 6189)",[1],0.5 mg/kg
same,"median effective dose (ED50), Staphylococcus aureus-SMITH (GC 4543)",[2],0.32 mg/kg
same,MIC Enterococccus avium (GC 4558),[3],4 µg/mL
same,MIC Enterococccus faecalis (ATCC 29212),[3],2 µg/mL
same,MIC Enterococccus faecalis (GC 2691),[3],4 µg/mL
same,MIC Enterococccus faecalis (GC 3059),[3],2 µg/mL
same,MIC Enterococccus faecalis (GC 4552),[3],2 µg/mL
same,MIC Enterococccus faecalis (GC 4553),[3],4 µg/mL
same,MIC Enterococccus faecalis (GC 4554),[3],2 µg/mL
same,MIC Enterococccus faecalis (GC 6189),[3],2 µg/mL
same,MIC Enterococccus faecium (GC 2243),[3],2 µg/mL
same,MIC Enterococccus faecium (GC 4556),[3],2 µg/mL
same,MIC Enterococccus faecium (GC 4557),[3],2 µg/mL
same,MIC Enterococcus faecalis (GC 2242),[3],2 µg/mL
same,MIC Streptococcus agalactiae (GC 4564),[4],0.25 µg/mL
same,MIC Streptococcus pneumoniae (GC 1894),[4],<0.06 µg/mL
same,MIC Streptococcus pneumoniae (GC 4565),[4],<0.06 µg/mL
same,MIC Streptococcus pneumonine (ATCC 6301),[4],<0.06 µg/mL
same,MIC Streptococcus pyogenes (GC 4563),[4],0.25 µg/mL
same,MIC Staphylococcus aureus (ATCC 29213),[5],1 µg/mL
same,MIC Staphylococcus aureus (ATCC 29213),[5]; [7],1 µg/mL
same,MIC Staphylococcus aureus (GC 1131),[5],2 µg/mL
same,MIC Staphylococcus aureus (GC 1131),[5]; [7],2 µg/mL
same,MIC Staphylococcus aureus (GC 3051),[5],1 µg/mL
same,MIC Staphylococcus aureus (GC 3051),[5]; [7],1 µg/mL
same,MIC Staphylococcus aureus (GC 3053),[5],1 µg/mL
same,MIC Staphylococcus aureus (GC 3053),[5]; [7],1 µg/mL
same,MIC Staphylococcus aureus (GC 4541),[5],1 µg/mL
same,MIC Staphylococcus aureus (GC 4541),[5]; [7],1 µg/mL
same,MIC Staphylococcus aureus (GC 4542),[5],1 µg/mL
same,MIC Staphylococcus aureus (GC 4542),[5]; [7],1 µg/mL
same,MIC Staphylococcus aureus-SMITH (GC 4543),[5]; 18 hours at 35° C.,1 µg/mL
same,MIC Staphylococcus aureus-SMITH (GC 4543),[5]; [7],1 µg/mL
same,MIC Staphylococcus aureus (GC 4544),[5],2 µg/mL
same,MIC Staphylococcus aureus (GC 4544),[5]; [7],2 µg/mL
same,MIC Staphylococcus aureus (GC 4545),[5],2 µg/mL
same,MIC Staphylococcus aureus (GC 4545),[5]; [7],2 µg/mL
same,MIC Staphylococcus haemolyticus (GC 4546),[5],1 µg/mL
same,MIC Staphylococcus haemolyticus (GC 4546),[5]; [7],1 µg/mL
same,MIC Coagulase Negative Staphylococcus (GC 4547),[5],1 µg/mL
same,MIC Coagulase Negative Staphylococcus (GC 4547),[5]; [7],1 µg/mL
same,MIC Coagulase Negative Staphylococcus (GC 4548),[5],0.5 µg/mL
same,MIC Coagulase Negative Staphylococcus (GC 4548),[5]; [7],0.5 µg/mL
same,MIC Coagulase Negative Staphylococcus (GC 4549),[5],0.5 µg/mL
same,MIC Coagulase Negative Staphylococcus (GC 4549),[5]; [7],0.5 µg/mL
same,MIC Coagulase Negative Staphylococcus (GC 4551),[5],2 µg/mL
same,MIC Coagulase Negative Staphylococcus (GC 4551),[5]; [7],2 µg/mL
same,MIC Coagulase Negative Staphylococcus (GC 6257),[5],1 µg/mL
same,MIC Coagulase Negative Staphylococcus (GC 6257),[5]; [7],1 µg/mL
same,MIC Escherichia coli (ATCC 25922),[6],32 µg/mL
same,MIC Escherichia coli (GC 4559),[6],32 µg/mL
same,MIC Escherichia coli (GC 4560),[6],1 µg/mL
